Legend:
[1] = target: T1, Glucocorticoid receptor (GR) (Homo sapiens, UniProt P04150); assay: Glucocorticoid receptor transactivation, MMTV-bla HeLa CELLSENSOR β-lactamase reporter, agonist mode; assay type: cell-based; details: for % Activation at 100 nM: GR, 5 hours; for greater potency compared to the parent molecule cortisol: GR signaling pathway, relative to cortisol
T1 construct: host or cells: MMTV-bla HeLa CELLSENSOR
T1 sequence (P04150 1-777): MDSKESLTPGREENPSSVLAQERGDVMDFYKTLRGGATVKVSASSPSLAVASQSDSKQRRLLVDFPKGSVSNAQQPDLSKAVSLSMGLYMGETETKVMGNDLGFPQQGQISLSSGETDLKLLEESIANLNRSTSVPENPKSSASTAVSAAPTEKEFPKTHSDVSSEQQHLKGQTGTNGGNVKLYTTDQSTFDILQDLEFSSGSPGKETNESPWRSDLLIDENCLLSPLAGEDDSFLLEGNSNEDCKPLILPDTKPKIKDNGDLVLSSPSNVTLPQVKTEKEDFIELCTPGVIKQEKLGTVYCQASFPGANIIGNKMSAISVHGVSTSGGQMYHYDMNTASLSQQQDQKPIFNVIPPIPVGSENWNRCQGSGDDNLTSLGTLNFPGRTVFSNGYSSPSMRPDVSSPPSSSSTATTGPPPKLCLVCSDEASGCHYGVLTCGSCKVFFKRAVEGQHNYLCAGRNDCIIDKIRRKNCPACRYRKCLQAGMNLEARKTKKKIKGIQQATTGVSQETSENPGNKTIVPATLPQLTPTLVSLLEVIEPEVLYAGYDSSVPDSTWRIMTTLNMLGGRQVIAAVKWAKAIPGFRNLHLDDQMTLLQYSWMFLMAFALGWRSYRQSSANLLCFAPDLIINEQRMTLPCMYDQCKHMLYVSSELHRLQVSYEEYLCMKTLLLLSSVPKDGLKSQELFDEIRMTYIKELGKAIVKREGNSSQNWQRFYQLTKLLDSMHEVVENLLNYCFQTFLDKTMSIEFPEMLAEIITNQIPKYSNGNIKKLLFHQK
Experimental: Glucocorticoid receptor (GR) activation potency was assessed using a HeLa cell line containing the MMTV-bla reporter (MMTV-bla HeLa CELLSENSOR®, Invitrogen Corp., Carlsbad, Calif.). This cell line was stably transfected with an expression construct containing β-lactamase cDNA under control of the MMTV response element previously identified as a glucocorticoid receptor response element. […] All assays were performed as 10-point dose responses using a half log-fold dilution series starting with a maximum compound concentration of 100 nM. The compounds were incubated for 5 hours. The activation of endogenous GR leads to expression of the reporter β-lactamase which is detected by the conversion of a FRET substrate in a ratiometric assay format. This functional assay allows for measurement of receptor agonism by compounds and can be used to determine compound potency and selectivity. Assay reproducibility was determined by calculating Z′ values for untreated versus maximum stimulation.

[2] = patients, applied locally via eye drops, compared to dexamethasone, prednisolone and fluorometholone; cited from earlier work
[3] = target: T2, fusion protein GAL4(DBD)-MR(LBD) (Homo sapiens, UniProt P08235); assay: Mineralocorticoid receptor transactivation, UAS-bla HEK 293T CELLSENSOR β-lactamase reporter, agonist mode; assay type: cell-based; details: for % Activation at 100 nM: MR, UAS-bla HEK 293T, agonist mode, 16 hours
T2 sequence (P08235 726-964 limits assumed): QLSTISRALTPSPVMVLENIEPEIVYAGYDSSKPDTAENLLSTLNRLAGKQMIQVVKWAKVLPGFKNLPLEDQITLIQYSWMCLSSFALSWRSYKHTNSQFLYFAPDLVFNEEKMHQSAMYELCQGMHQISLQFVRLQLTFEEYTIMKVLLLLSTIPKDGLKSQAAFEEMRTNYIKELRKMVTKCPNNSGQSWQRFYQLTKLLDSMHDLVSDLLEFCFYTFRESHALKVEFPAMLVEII
Experimental: Mineralocorticoid receptor (MR) activation potency was assessed using a HEK 293T cell line containing the UAS-bla reporter (UAS-bla HEK 293T CELLSENSOR®). This cell line was stably cotransfected with an expression construct containing β-m lactamase cDNA under control of the GAL4 Upstream Activator Sequence (UAS) and another expression construct encoding for the fusion protein GAL4(DBD)-MR(LBD). […] All assays were performed as 10-point dose responses using a half log-fold dilution series starting with a maximum compound concentration of 100 nM. The compounds were incubated for 16 hours. The activation of the fusion protein GAL4(DBD)-MR(LBD) leads to expression of the reporter β-lactamase which is detected by the conversion of a FRET substrate in a ratiometric assay format. This functional assay allows for measurement of receptor agonism by compounds and can be used to determine compound potency and selectivity. Assay reproducibility was determined by calculating Z′ values for untreated versus maximum stimulation.

SMILES: C[C@]12CCC(=O)C=C1CC[C@@H]1[C@@H]2[C@@H](O)C[C@@]2(C)[C@H]1CC[C@]2(O)C(=O)CO
- % Activation at 100 nM ([1]; MMTV-bla HeLa, agonist mode): 43%

SMILES: C[C@]12CCC(=O)C=C1CC[C@@H]1[C@@H]2[C@@H](O)C[C@@]2(C)[C@H]1CC[C@]2(OC(=O)c1ccccc1)C(=O)CO [cortisol 17-benzoate]
- greater potency compared to the parent molecule cortisol [1]: about 30 fold

SMILES: C[C@]12CCC(=O)C=C1CC[C@@H]1[C@@H]2[C@@H](O)C[C@@]2(C)[C@H]1CC[C@]2(OC(=O)C1CCCC1)C(=O)CO [cortisol 17-cyclopentanoate]
- greater potency compared to the parent molecule cortisol [1]: about 30 fold

SMILES: C[C@]12CCC(=O)C=C1CC[C@@H]1[C@@H]2[C@@H](O)C[C@@]2(C)[C@H]1CC[C@]2(O)C(=O)CO [cortisol]
- effect on intraocular pressure [2]: minimal effect on intraocular pressure

SMILES: C[C@]12CCC(=O)C=C1CC[C@@H]1[C@@H]2[C@@H](O)C[C@@]2(C)[C@H]1CC[C@]2(OC(=O)CCS(=O)(=O)c1ccccc1)C(=O)CO [drawing 14]
- % Activation at 100 nM ([1]; MMTV-bla HeLa, agonist mode): 17%
- EC50 ([1]; MMTV-bla HeLa, agonist mode, 5 hours incubation, max concentration 100 nM, one experiment in duplicate): > 100 nM

SMILES: C[C@]12CCC(=O)C=C1CC[C@@H]1[C@@H]2[C@@H](O)C[C@@]2(C)[C@H]1CC[C@]2(OC(=O)Cc1ccc(Br)cc1)C(=O)CO [drawing 15]
- % Activation at 100 nM ([1]; MMTV-bla HeLa, agonist mode): 0%

SMILES: C[C@]12CCC(=O)C=C1CC[C@@H]1[C@@H]2[C@@H](O)C[C@@]2(C)[C@H]1CC[C@]2(OC(=O)CCS(=O)(=O)c1ccccc1)C(=O)CO [drawing 18]
- EC50 [3]: 3.48 nM
- % Activation at 100 nM [3]: 79%

SMILES: C[C@]12CCC(=O)C=C1CC[C@@H]1[C@@H]2[C@@H](O)C[C@@]2(C)[C@H]1CC[C@]2(OC(=O)Cc1ccc(Br)cc1)C(=O)CO [drawing 19]
- EC50 [3]: 5.53 nM
- % Activation at 100 nM [3]: 77%

— patent US10493082B2, “4-pregenen-11β-17-21-triol-3,20-dione derivatives” (Allergan, Inc., priority 2011, dated 2019)
